Source: patent publication US6344179B1, “Fluoralkenyl nortropanes” (Emory University, priority 1999, dated 2002)
Read-outs that look alike come from different tables or passages of the source.

Legend:
striatal DAT = assay: PET imaging in awake rhesus monkeys; assay type: in vivo, rhesus monkey
Procedure: The regional kinetics of [^18F] […] Both [^18F] […] [^18F] […] The peak uptake ratio of striatumwcerebellum was 4:1 at 20 minutes for [^18F] […] 6d. The in vivo ratio of [1^18F] […] FECNT, 5:1. [^18F]

human SERT = biological target: T1, human SERT (Homo sapiens, UniProt P31645); assay: Competitive binding in transfected cell lines, [3H]Citalopram
T1 construct: expressed in transfected cells

[1] = biological target: T2, norepinephrine transporter (Homo sapiens, UniProt P23975); assay: Competitive binding in transfected cell lines, [3H]Nisoxetine
T2 construct: expressed in transfected cells

human DAT = biological target: T3, human DAT (Homo sapiens, UniProt Q01959); assay: Competitive binding in transfected cell lines, [3H]WIN 35428
T3 construct: expressed in transfected cells

rat brain DAT = biological target: T4, rat brain DAT (Rattus norvegicus, UniProt P23977); assay: In vivo specificity: RTI-113 block before the 18F ligand in rats
T4 construct: from tissue; host or cells: brain of living male Sprague Dawley rats (striatum, cortex, cerebellum dissected)
Procedure: To determine the in vivo specificity of FBNT analogs [^18F] […] 6a, 6d and 6e. The rats were sacrificed 60 minutes after injection of [^18F] […] 6a, 6d and 6e, in the DAT transporter rich striatum.

[2] = In vivo regional brain tissue distribution of 18F-labeled ligands in rats; set-up: species or system Sprague Dawley rats; settings: rat; for Regional uptake of radioactivity, Cerebellum / Regional uptake of radioactivity, Cortex (Cx) / Regional uptake of radioactivity, Striatum / S/Cereb (striatum to cerebellum ratio) / S/Cx (striatum to cortex ratio) / Uptake of radioactivity, Blood / Uptake of radioactivity, Brain: i.v., 18F-labeled
Source text: The in vivo regional brain tissue distribution of [^18F]

[3] = [3H]Citalopram, cells transfected with human SERT, read-out: 5-HTT, Ki
[4] = [3H]Nisoxetine, transfected cell lines, read-out: NET, Ki
[5] = 60 min, 5 mg/kg RTI-113 i.v. 15 minutes prior

T2 sequence (P23975 whole entry): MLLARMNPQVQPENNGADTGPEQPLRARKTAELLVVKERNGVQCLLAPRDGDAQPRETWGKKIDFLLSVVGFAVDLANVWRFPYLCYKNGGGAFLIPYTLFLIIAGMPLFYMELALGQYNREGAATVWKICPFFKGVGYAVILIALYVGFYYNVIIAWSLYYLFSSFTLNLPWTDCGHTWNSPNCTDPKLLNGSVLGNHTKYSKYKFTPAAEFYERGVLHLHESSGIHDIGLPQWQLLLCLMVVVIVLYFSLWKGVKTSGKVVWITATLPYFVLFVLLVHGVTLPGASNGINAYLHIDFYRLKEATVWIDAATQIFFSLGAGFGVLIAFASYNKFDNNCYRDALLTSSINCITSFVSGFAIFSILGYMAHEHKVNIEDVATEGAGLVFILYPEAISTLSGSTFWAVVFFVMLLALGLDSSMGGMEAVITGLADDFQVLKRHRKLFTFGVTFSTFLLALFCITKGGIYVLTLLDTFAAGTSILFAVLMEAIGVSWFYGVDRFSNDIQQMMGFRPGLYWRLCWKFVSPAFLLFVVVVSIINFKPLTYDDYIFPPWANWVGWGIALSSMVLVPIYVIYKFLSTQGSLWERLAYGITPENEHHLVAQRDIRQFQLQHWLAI
T1 sequence (P31645 whole entry): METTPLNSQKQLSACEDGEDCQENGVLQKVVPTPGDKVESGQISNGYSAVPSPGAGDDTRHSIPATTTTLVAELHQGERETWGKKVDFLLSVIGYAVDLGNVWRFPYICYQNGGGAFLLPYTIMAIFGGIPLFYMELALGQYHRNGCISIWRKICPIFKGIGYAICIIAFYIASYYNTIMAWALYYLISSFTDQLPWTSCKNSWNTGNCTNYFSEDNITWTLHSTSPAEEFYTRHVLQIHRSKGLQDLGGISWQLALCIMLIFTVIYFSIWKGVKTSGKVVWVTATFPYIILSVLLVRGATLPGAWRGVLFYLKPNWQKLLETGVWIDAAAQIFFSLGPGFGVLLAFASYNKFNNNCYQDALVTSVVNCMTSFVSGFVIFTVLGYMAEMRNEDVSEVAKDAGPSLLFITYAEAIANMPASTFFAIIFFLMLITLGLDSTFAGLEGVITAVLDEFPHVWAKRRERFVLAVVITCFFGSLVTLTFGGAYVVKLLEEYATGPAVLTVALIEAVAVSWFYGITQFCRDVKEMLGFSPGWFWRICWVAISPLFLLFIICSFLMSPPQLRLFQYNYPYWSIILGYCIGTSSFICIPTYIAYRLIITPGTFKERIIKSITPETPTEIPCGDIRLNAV
T3 sequence (Q01959 whole entry): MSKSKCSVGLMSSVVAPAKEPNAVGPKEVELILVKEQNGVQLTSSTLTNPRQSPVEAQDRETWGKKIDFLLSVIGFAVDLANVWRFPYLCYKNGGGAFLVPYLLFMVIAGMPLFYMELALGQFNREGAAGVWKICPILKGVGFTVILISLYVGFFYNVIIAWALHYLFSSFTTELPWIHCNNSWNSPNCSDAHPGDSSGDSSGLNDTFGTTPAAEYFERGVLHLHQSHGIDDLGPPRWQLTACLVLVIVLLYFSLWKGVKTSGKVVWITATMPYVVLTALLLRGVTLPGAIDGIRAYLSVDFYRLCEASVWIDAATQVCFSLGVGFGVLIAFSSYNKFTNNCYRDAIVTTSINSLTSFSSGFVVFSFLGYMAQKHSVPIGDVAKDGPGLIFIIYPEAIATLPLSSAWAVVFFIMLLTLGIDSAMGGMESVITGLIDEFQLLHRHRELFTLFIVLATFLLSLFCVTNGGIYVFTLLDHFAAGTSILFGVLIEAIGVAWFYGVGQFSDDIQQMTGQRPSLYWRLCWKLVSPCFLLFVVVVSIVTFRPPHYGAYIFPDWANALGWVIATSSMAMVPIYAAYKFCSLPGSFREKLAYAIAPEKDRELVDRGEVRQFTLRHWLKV
T4 sequence (P23977 whole entry): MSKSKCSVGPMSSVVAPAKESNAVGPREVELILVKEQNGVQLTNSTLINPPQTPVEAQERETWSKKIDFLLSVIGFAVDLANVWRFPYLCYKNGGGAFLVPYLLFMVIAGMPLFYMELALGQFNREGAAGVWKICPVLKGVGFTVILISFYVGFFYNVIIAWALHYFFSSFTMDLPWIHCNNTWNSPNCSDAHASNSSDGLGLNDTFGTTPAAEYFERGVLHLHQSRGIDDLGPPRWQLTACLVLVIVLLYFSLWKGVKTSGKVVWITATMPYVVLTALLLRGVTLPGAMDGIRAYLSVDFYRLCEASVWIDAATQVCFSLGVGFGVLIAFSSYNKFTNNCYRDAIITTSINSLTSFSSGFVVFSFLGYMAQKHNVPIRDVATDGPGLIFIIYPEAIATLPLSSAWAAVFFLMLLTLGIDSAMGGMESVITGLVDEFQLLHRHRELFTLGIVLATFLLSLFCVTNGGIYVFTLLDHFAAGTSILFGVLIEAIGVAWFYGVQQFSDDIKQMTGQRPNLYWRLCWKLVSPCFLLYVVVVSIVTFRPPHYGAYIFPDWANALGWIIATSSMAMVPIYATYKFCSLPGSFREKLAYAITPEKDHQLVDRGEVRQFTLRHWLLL

COC(=O)[C@H]1[C@@H](c2ccc(Cl)cc2)C[C@@H]2CC[C@H]1N2C/C=C\CF [6f, N-((Z)-4-fluorobut-2-en-1-yl)-2β-carbomethoxy-3β-(4-chlorophenyl) nortropane]
initial uptake in striatum and cerebellum (striatal DAT; awake rhesus monkeys): high initial uptake in the striatum and very little uptake in the cerebellum

COC(=O)[C@H]1[C@@H](c2ccc(F)cc2)C[C@@H]2CC[C@H]1N2C/C=C/I [Altropane, reference compound]
Ki (human SERT; [3]): 55.4 nM
Ki [1, 4]: > 10 µM
Ki (human DAT; [3H]WIN 35428 as reference, cells transfected with human DAT, read-out: DAT, Ki): 0.78 nM

COC(=O)[C@H]1[C@@H](c2ccc(Cl)cc2)C[C@@H]2CC[C@H]1N2C/C=C/I [MMG/142, IPT, reference compound]
Ki (human SERT): 4.9 nM
Ki [1]: 0.0487 µM
Ki (human DAT): 1.16 nM

N-((E)-4-fluorobut-2-en-1-yl)-2β-carbomethoxy-3β-phenylnortropane [6a]
Ki (human SERT; [3]): 102 nM
Ki [1, 4]: > 10 µM
retention of radioactivity in the striatum (striatal DAT; awake rhesus monkey, PET images): no visible retention of radioactivity in the striatum
selectivity for DAT over SERT (human DAT; from binding in transfected cells): 14 times
selectivity for DAT (human DAT; in vitro competitive binding): very high selectivity
Regional uptake of radioactivity, Cerebellum (rat brain DAT; [5]): 0.09 % dose/g
Regional uptake of radioactivity, Cortex (Cx) (rat brain DAT; [5]): 0.10 % dose/g
Regional uptake of radioactivity, Striatum (rat brain DAT; [5]): 0.11 % dose/g
S/Cereb (striatum to cerebellum ratio) (rat brain DAT; [5]): 1.22
S/Cx (striatum to cortex ratio) (rat brain DAT; [5]): 1.10
Uptake of radioactivity, Blood (rat brain DAT; [5]): 0.12 % dose/g
Uptake of radioactivity, Brain (rat brain DAT; [5]): 0.07 % dose/g
effect of RTI-113 on uptake in the striatum (rat brain DAT; RTI-113 5 mg/kg i.v. 15 minutes prior, 60 minutes): significantly blocked
clearance from striatal tissue ([2]; at 60 minutes compared to 5 minutes post injection): 75%
clearance from striatal tissue ([2]; at 120 minutes compared to 5 minutes post injection): 90%
Regional uptake of radioactivity, Cerebellum ([2]; 5 min): 0.55 % dose/g
Regional uptake of radioactivity, Cortex (Cx) ([2]; 5 min): 0.84 % dose/g
Regional uptake of radioactivity, Striatum ([2]; 5 min): 1.25 % dose/g
S/Cereb (striatum to cerebellum ratio) ([2]; 5 min): 2.27
S/Cx (striatum to cortex ratio) ([2]; 5 min): 1.49
Uptake of radioactivity, Blood ([2]; 5 min): 0.22 % dose/g
Uptake of radioactivity, Brain ([2]; 5 min): 0.58 % dose/g
Regional uptake of radioactivity, Cerebellum ([2]; 30 min): 0.12 % dose/g
Regional uptake of radioactivity, Cortex (Cx) ([2]; 30 min): 0.19 % dose/g
Regional uptake of radioactivity, Striatum ([2]; 30 min): 0.36 % dose/g
S/Cereb (striatum to cerebellum ratio) ([2]; 30 min): 3.0
S/Cx (striatum to cortex ratio) ([2]; 30 min): 1.89
Uptake of radioactivity, Blood ([2]; 30 min): 0.15 % dose/g
Uptake of radioactivity, Brain ([2]; 30 min): 0.13 % dose/g
Regional uptake of radioactivity, Cerebellum ([2]; 60 min): 0.09 % dose/g
Regional uptake of radioactivity, Cortex (Cx) ([2]; 60 min): 0.13 % dose/g
Regional uptake of radioactivity, Striatum ([2]; 60 min): 0.25 % dose/g
S/Cereb (striatum to cerebellum ratio) ([2]; 60 min): 2.78
S/Cx (striatum to cortex ratio) ([2]; 60 min): 1.92
Uptake of radioactivity, Blood ([2]; 60 min): 0.11 % dose/g
Uptake of radioactivity, Brain ([2]; 60 min): 0.09 % dose/g
Regional uptake of radioactivity, Cerebellum ([2]; 120 min): 0.07 % dose/g
Regional uptake of radioactivity, Cortex (Cx) ([2]; 120 min): 0.09 % dose/g
Regional uptake of radioactivity, Striatum ([2]; 120 min): 0.13 % dose/g
S/Cereb (striatum to cerebellum ratio) ([2]; 120 min): 1.86
S/Cx (striatum to cortex ratio) ([2]; 120 min): 1.86
Uptake of radioactivity, Blood ([2]; 120 min): 0.07 % dose/g
Uptake of radioactivity, Brain ([2]; 120 min): 0.07 % dose/g
